# Reference: ChEMBL document CHEMBL4808249, “Total synthesis and biological evaluation of 7-hydroxyneolamellarin A as hypoxia-inducible factor-1α inhibitor for cancer therapy” (Bioorg Med Chem Lett, 2021)
# Active and inactive are the calls of the source. The rule behind the calls is not given here.
# Assays:
# [1] = test system: 4T1; experiment: Antitumor activity against mouse 4T1 cells xenografted in BALB/c mouse assessed as tumor growth inhibition at 15 mg/kg, ip administered every 2 days starting from day 7 post-inoculation and measured on day 24; assay type: functional, organism-based; settings: time 18.0 day
# [2] = Toxicity in BALB/c mouse xenografted with mouse 4T1 cells assessed as effect on spleen morphology at 15 mg/kg, ip administered every 2 days starting from day 7 post-inoculation and measured on day 24 by Hematoxyin-eosin staining based analysis; assay type: organism-based; settings: in vivo, 432 h, time 18 day
# [3] = Toxicity in BALB/c mouse xenografted with mouse 4T1 cells assessed as effect on body weight at 15 mg/kg, ip administered every 2 days starting from day 7 post-inoculation and measured on day 24; assay type: organism-based; settings: in vivo, 432 h, time 18 day
# [4] = Toxicity in BALB/c mouse xenografted with mouse 4T1 cells assessed as effect on heart morphology at 15 mg/kg, ip administered every 2 days starting from day 7 post-inoculation and measured on day 24 by Hematoxyin-eosin staining based analysis; assay type: organism-based; settings: in vivo, 432 h, time 18 day
# [5] = Toxicity in BALB/c mouse xenografted with mouse 4T1 cells assessed as effect on kidney morphology at 15 mg/kg, ip administered every 2 days starting from day 7 post-inoculation and measured on day 24 by Hematoxyin-eosin staining based analysis; assay type: organism-based; settings: in vivo, 432 h, time 18 day
# [6] = Toxicity in BALB/c mouse xenografted with mouse 4T1 cells assessed as effect on liver morphology at 15 mg/kg, ip administered every 2 days starting from day 7 post-inoculation and measured on day 24 by Hematoxyin-eosin staining based analysis; assay type: organism-based; settings: in vivo, 432 h, time 18 day
# [7] = test system: HeLa; experiment: Downregulation of HIF-1 alpha expression in human HeLa cells at 50 to 150 umol/L incubated under hypoxia conditions for 4 hrs by Western blot analysis; assay type: functional, cell-based; settings: dose 50-150 µmol/L
# [8] = Toxicity in BALB/c mouse xenografted with mouse 4T1 cells assessed as effect on spleen morphology at 15 mg/kg, iv administered every 2 days starting from day 7 post-inoculation and measured on day 24 by Hematoxyin-eosin staining based analysis; assay type: organism-based; settings: in vivo, 432 h, time 18 day
# [9] = Toxicity in BALB/c mouse xenografted with mouse 4T1 cells assessed as effect on heart morphology at 15 mg/kg, iv administered every 2 days starting from day 7 post-inoculation and measured on day 24 by Hematoxyin-eosin staining based analysis; assay type: organism-based; settings: in vivo, 432 h, time 18 day
# [10] = test system: MCF7; experiment: Downregulation of HIF-1alpha expression in human MCF7 cells at 50 to 150 umol/L incubated under hypoxia condition for 4 hrs by Western blot analysis; assay type: functional, cell-based; settings: dose 50-150 µmol/L
# [11] = test system: HeLa; experiment: Downregulation of HIF-1alpha expression in human HeLa cells at 50 to 150 umol/L incubated under hypoxia condition for 4 hrs by immunofluorescence analysis; assay type: functional, cell-based; settings: dose 50-150 µmol/L
# [12] = target: T1, Hypoxia-inducible factor 1-alpha (Homo sapiens, UniProt Q16665); experiment: Inhibition of HIF-1alpha in human HeLa cells assessed as reduction in VEGF mRNA level incubated under hypoxia condition for 12 hrs by RT-PCR analysis; assay type: cell-based; settings: dose 25-100 µmol/L
# Target sequence in this assay (Q16665 whole entry, looked up): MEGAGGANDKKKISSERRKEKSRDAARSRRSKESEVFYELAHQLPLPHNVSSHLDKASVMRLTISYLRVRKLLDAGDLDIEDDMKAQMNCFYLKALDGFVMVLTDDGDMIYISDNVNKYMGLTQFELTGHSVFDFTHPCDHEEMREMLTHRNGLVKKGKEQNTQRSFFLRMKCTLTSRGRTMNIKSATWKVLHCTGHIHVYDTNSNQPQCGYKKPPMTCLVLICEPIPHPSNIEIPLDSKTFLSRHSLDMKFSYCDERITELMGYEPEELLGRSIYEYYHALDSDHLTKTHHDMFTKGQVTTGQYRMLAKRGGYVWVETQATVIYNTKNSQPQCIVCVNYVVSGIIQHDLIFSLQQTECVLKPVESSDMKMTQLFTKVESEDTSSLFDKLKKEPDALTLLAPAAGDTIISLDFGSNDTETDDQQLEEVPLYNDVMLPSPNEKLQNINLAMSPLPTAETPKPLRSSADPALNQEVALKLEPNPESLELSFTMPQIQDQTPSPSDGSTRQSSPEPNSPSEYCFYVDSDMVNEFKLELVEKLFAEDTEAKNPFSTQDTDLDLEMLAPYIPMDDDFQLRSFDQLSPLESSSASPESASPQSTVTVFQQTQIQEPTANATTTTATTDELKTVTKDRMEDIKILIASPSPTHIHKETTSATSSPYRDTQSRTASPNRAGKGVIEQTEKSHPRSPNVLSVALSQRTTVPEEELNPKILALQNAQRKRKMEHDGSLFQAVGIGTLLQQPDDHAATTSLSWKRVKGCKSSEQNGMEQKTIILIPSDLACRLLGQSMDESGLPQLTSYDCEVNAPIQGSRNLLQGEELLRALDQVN
# [13] = Toxicity in BALB/c mouse xenografted with mouse 4T1 cells assessed as effect on liver morphology at 15 mg/kg, iv administered every 2 days starting from day 7 post-inoculation and measured on day 24 by Hematoxyin-eosin staining based analysis; assay type: organism-based; settings: in vivo, 432 h, time 18 day
# [14] = test system: HeLa; experiment: Downregulation of HIF-1 alpha expression in human HeLa cells assessed as half life of the protein at 150 umol/L incubated under CoCl2-stimulated hypoxia conditions for 4 hrs followed by incubation with compound and protein translation inhibitor, CHX under normoxia conditions for 240 mins by Western blot analysis (reference value: 33.4 mins); assay type: functional, cell-based; settings: dose 150.0 µmol/L
# [15] = test system: 4T1; experiment: Downregulation of HIF-1alpha expression in mouse 4T1 cells at 50 to 150 umol/L incubated under hypoxia condition for 4 hrs by Western blot analysis; assay type: functional, cell-based; settings: dose 50-150 µmol/L
# [16] = test system: HeLa; experiment: Downregulation of HIF-1beta expression in human HeLa cells at 50 to 150 umol/L incubated under hypoxia conditions for 4 hrs by western blot analysis; assay type: functional, cell-based; settings: dose 50-150 µmol/L
# [17] = target: T1, Hypoxia-inducible factor 1-alpha; experiment: Inhibition of HIF-1alpha in human HeLa cells transfected with HRE-driven firefly luciferase gene pretreated with compound followed by incubation under normoxic condition for 1 hr followed by hypoxic condition for 12 hrs by dual luciferase reporter gene assay; assay type: cell-based
# [18] = test system: HeLa; experiment: Inhibition of cell migration in human HeLa cells at 10 to 50 umol/L incubated under hypoxia condition for 36 hrs by wound healing assay; assay type: functional, cell-based; settings: dose 10-50 µmol/L
# [19] = test system: 4T1; experiment: Downregulation of HIF-1alpha protein expression in tumor tissue of BALB/c mouse xenografted with mouse 4T1 cells at 15 mg/kg, iv administered every 2 days starting from day 7 post-inoculation and measured on day 24 by immunofluorescence analysis; assay type: functional, organism-based; settings: time 18.0 day
# [20] = test system: HeLa; experiment: Cytotoxicity against human HeLa cells assessed as cell viability at 6.3 to 150 umol/L incubated under normoxic conditions for 24 hrs by MTT assay; assay type: cell-based; settings: dose 6.3-150 µmol/L
# [21] = test system: HUVEC; experiment: Inhibition of angiogenesis in human HUVEC cells assessed as disruption of tube formation at 150 umol/L incubated under hypoxia condition for 6 hrs by Matrigel based analysis; assay type: functional, cell-based; settings: dose 150.0 µmol/L
# [22] = test system: HeLa; experiment: Antiinvasive activity in human HeLa cells assessed as inhibition of cell invasion at 50 to 150 umol/L incubated under hypoxia condition for 36 hrs by transwell invasion assay; assay type: functional, cell-based; settings: dose 50-150 µmol/L
# [23] = test system: HeLa; experiment: Downregulation of HIF-1 alpha expression in human HeLa cells at 100 to 150 umol/L incubated under hypoxia conditions for 4 hrs in presence of proteasome inhibitor, MG132 by Western blot analysis; assay type: functional, cell-based; settings: dose 100-150 µmol/L
# [24] = test system: HeLa; experiment: Downregulation of HIF-1 alpha expression in human HeLa cells at 50 to 150 umol/L incubated under normoxia conditions for 4 hrs in presence of CoCl2 by Western blot analysis; assay type: functional, cell-based; settings: dose 50-150 µmol/L
# [25] = test system: HeLa; experiment: Inhibition of colony formation in human HeLa cells incubated under hypoxia condition for 10 days; assay type: functional, cell-based; settings: dose 5-50 µmol/L, time 10.0 day
# [26] = Toxicity in BALB/c mouse xenografted with mouse 4T1 cells assessed as effect on body weight at 15 mg/kg, iv administered every 2 days starting from day 7 post-inoculation and measured on day 24; assay type: organism-based; settings: in vivo, 432 h, time 18 day
# [27] = Toxicity in BALB/c mouse xenografted with mouse 4T1 cells assessed as effect on kidney morphology at 15 mg/kg, iv administered every 2 days starting from day 7 post-inoculation and measured on day 24 by Hematoxyin-eosin staining based analysis; assay type: organism-based; settings: in vivo, 432 h, time 18 day
# [28] = test system: 4T1; experiment: Antitumor activity against mouse 4T1 cells xenografted in BALB/c mouse assessed as tumor growth inhibition at 15 mg/kg, iv administered every 2 days starting from day 7 post-inoculation and measured on day 24; assay type: functional, organism-based; settings: time 18.0 day
# [29] = test system: HeLa; experiment: Cytotoxicity against human HeLa cells assessed as cell viability at 6.3 to 150 umol/L incubated under hypoxia condition for 24 hrs by MTT assay; assay type: cell-based; settings: dose 6.3-150 µmol/L
smiles,measurement,setting,value
C=CCNC1=C2C[C@@H](C)C[C@H](OC)[C@H](O)[C@@H](C)/C=C(\C)[C@H](OC(N)=O)[C@@H](OC)/C=C\C=C(/C)C(=O)NC(=CC1=O)C2=O (stereo in doubt) [TANESPIMYCIN],Activity,[1],Active
same,Activity,[2],Non-Toxic
same,Activity,[3],Non-Toxic
same,Activity,[4],Non-Toxic
same,Activity,[5],Non-Toxic
same,Activity,[6],Non-Toxic
O=C(C(O)c1ccc(O)cc1)n1cc(-c2ccc(O)cc2)c(-c2ccc(O)cc2)c1 (stereo not given) [7-(R/S)-HYDROXYLAMELLARIN A],inhibition,[7],Active
same,Activity,[8],Non-Toxic
same,Activity,[9],Non-Toxic
same,inhibition,[10],Active
same,inhibition,[11],Active
same,inhibition,[12],Dose-Dependent Effect
same,Activity,[13],Non-Toxic
same,T1/2,[14],10.4 min
same,inhibition,[15],Active
same,inhibition,[16],inactive
same,IC50,[17],23 µM
same,inhibition,[17]; time 13.0 hrs,Dose-Dependent Effect
same,inhibition,[18],Active
same,inhibition,[19],Active
same,Activity,[20],Non-Toxic
same,inhibition,[21],Active
same,Activity,[22],Active
same,inhibition,[23],Active
same,inhibition,[24],Active
same,inhibition,[25],Dose-Dependent Effect
same,Activity,[26],Non-Toxic
same,Activity,[27],Non-Toxic
same,Activity,[28],Active
same,Activity,[29],Non-Toxic
